Molecular target: Sodium-dependent noradrenaline transporter (Homo sapiens, UniProt P23975)
Assay: Compound was tested for its ability to inhibit the uptake of Norepinephrine in Norepinephrine transporter system
Type: functional

Sodium-dependent noradrenaline transporter, sequence (P23975 whole entry): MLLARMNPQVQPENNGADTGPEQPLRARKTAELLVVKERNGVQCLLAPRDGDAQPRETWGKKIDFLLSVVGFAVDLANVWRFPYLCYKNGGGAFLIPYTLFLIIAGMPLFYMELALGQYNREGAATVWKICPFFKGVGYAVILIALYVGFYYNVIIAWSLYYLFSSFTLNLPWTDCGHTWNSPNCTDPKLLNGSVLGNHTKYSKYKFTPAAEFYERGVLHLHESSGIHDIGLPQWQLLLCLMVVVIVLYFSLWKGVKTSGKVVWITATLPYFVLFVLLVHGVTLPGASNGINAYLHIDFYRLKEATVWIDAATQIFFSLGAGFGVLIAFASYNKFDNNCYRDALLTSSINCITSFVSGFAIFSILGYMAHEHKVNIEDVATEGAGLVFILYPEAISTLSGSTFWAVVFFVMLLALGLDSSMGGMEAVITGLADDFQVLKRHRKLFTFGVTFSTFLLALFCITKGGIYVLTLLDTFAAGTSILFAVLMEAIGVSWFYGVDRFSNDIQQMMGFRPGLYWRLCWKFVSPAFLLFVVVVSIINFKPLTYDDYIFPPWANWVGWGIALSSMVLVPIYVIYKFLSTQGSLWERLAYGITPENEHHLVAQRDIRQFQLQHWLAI

**Q.** Which IC50 does the source give for `c1ccc(CCCN2CCN(CCOC(c3ccccc3)c3ccccc3)CC2)cc1` here?
**A.** The IC50 was 1260 nM.

Source: ChEMBL document CHEMBL1130734, “Design and synthesis of a biotinylated dopamine transporter ligand for the purification and labeling of dopaminergic neurons” (Bioorg Med Chem Lett, 1998)
